Measured values taken from PMC11402852, “Genotoxicity of selected cannabinoids in human lymphoblastoid TK6 cells” (Archives of Toxicology, 2024).

System: TK6 cells
Test: Tubulin visualization
Type: cell-based, human
Conditions: 6 h; CBG 30 µM, CBD 15 µM, CBC 15 µM, CBN 15 µM; visually compared to control, not quantified
Description: For tubulin visualization, cells were treated with CBG 30 µM, CBD 15 µM, CBC 15 µM, CBDV 40 µM, and CBN 15 µM. The positive control was vincristine sulphate 0.0121 µM, and the solvent control was DMSO. Cells were treated for 6 h and then harvested. Slides were prepared with cytospin centrifugation. The cells were fixed in ice-cold methanol for 2 h. Following fixation, cells were permeabilized with 0.1% Tween20 in 1 × phosphate-buffered saline (PBS) for 5 min. Next, the anti-α-tubulin antibody was applied in 1:50 dilution. Antibody was diluted with 5% FCS in 1 × PBS. The antibody was incubated in a humid chamber at 4 °C for 24 h. Afterwards, the antibody was removed by washing slides twice with 0.5% Tween20 in 1 × PBS for 5 min. Nuclei were counterstained with Hoechst 33,258 (5 µg/mL, 3 min). The visualization was performed with a Keyence BZ-X800 microscope.

## C=C(C)[C@@H]1CCC(C)=C[C@H]1c1c(O)cc(CCCCC)cc1O [CBD, cannabidiol]
  Multipolar and monopolar tubulin aggregation: observed more frequently
